Reference: article PMC5321434, “Dihydrobenz[e][1,4]oxazepin-2(3H)-ones, a new anthelmintic chemotype immobilising whipworm and reducing infectivity in vivo” (PLoS Neglected Tropical Diseases, 2017)

Tested on: adult T. muris
Test: Ex vivo adult T. muris automated motility assay (primary/secondary screen at 100 μM and dose-response)
Parameters: species or system Trichuris muris
Details: for PRIMARY_SCREEN_MINUS_LOG_FOLD_CHANGE_MOVEMENT: primary screen
Method: Severe combined immune deficiency (SCID) mice were bred in the Biological Services Facility at the University of Manchester. Both male and female SCID mice were infected with a high dose of 200 infective embryonated T. muris eggs via oral gavage. At day 35 post-infection, groups of 5 mice were killed and their […] colons removed. Guts were opened longitudinally, washed with pre-warmed Roswell Park Memorial Institute (RPMI) 1640 media supplemented with penicillin (500U/ml) and streptomycin (500μg/ml) and adult T. muris worms gently removed using fine forceps. Worms removed from SCID mice were maintained in RPMI-1640 media supplemented with penicillin (500U/ml) and streptomycin (500μg/ml) at approximately 37°C and studied on the same day. Using fine forceps, individual live worms were placed into 96 well plates containing 75μl of RPMI-1640 medium supplemented with penicillin (500U/ml) and streptomycin (500μg/ml) plus 1% final concentration of DMSO or compound dissolved in DMSO. In the primary screen the test compound concentration was 100μM. Plates were then incubated at 37°C, 5% CO2, and motility was analysed after 24 hours. Worm movement was quantified using an automated motility assay. This system gives an estimate of worm movement in each well by thresholding and quantifying pixel intensity variance over time. An earlier version of this system has been previously described. One adult T. muris worm was used per well, with one well per compound in each replicate of the primary screen. The primary screen was repeated each week for a period of four weeks giving four independent biological replicates from separate parasite batches for each compound. Dose-response curves were calculated with the four factor log-logistic model using the R package drc. The primary screen was carried out at 100μM final concentration. Assay plates were assigned unique IDs and statistical analysis was performed without knowledge of compound identities using R scripts. Once hit wells were identified, well/plate positions were mapped to compound identities using DataWarrior [28]. […] Compounds identified as having encouraging activity from the DMSO solution samples were then resynthesized for confirmatory testing.

[1] = combined primary and secondary screen minus log fold change in movement, adult T. muris, 100 μM
[2] = adult T. muris motility, 100 μM

SMILES	COMBINED_SCREEN_ACTIVITY [1]	PRIMARY_SCREEN_MINUS_LOG_FOLD_CHANGE_MOVEMENT [2]	COMBINED_SCREEN_ACTIVITY (adult T. muris motility screen at 100 μM, combines primary and secondary screen minus log fold change in movement (mean where both are given))	SECONDARY_SCREEN_MINUS_LOG_FOLD_CHANGE_MOVEMENT (secondary screen, adult T. muris motility, 100 μM)
COCCN1C(=O)COCc2ccc(-c3cccc(F)c3)cc21 [Compound 38]	-1.255	-1.255	–	–
COc1ccccc1-c1ccc2c(c1)N(CC1CC1)C(=O)COC2 [Compound 42]	1.209	1.209	–	–
COc1ccc(-c2ccc3c(c2)N(CCN2CCOCC2)C(=O)COC3)c(C)c1 [Compound 157]	-1.37	-1.37	–	–
O=C1COCc2ccc(-c3cccc(O)c3)cc2N1CCc1ccccc1 [Compound 99]	-1.58	-1.58	–	–
O=C1COCc2ccc(-c3cccnc3)cc2N1Cc1ccccc1 [Compound 50]	0.07509	0.07509	–	–
O=C1COCc2cc(-c3cccnc3)ccc2N1Cc1ccccc1Cl [Compound 106]	6.595	6.595	–	–
CC(C)N1C(=O)COCc2ccc(Br)cc21 [Compound 19]	-1.507	-1.507	–	–
COc1ccc(F)cc1-c1ccc2c(c1)N(CCN1CCOCC1)C(=O)COC2 [Compound 162]	-1.305	-1.305	–	–
COC(=O)c1cccc(-c2ccc3c(c2)N(Cc2cccc(OC)c2)C(=O)COC3)c1 [Compound 183]	–	-1.271	-1.271	–
COc1ccccc1-c1ccc2c(c1)N(CCN1CCOCC1)C(=O)COC2 [Compound 136]	-0.8162	-0.8162	–	–
O=C1COCc2cc(-c3cc(F)cc(Cl)c3)ccc2N1CCN1CCOCC1 [Compound 174]	-1.356	-1.356	–	–
COCCN1C(=O)COCc2ccc(-c3cccc(COC)c3)cc21 [Compound 71]	-1.553	-1.553	–	–
O=C1COCc2cc(-c3cccnc3)ccc2N1Cc1ccc2c(c1)OCO2 [Compound 125]	-0.9605	-0.9605	–	–
COc1ccc(F)cc1-c1ccc2c(c1)N(Cc1ccccc1)C(=O)COC2 [Compound 129]	3.716	3.716	–	–
CN1C(=O)COCc2c(-c3ccc4c(c3)OCO4)cccc21 [Compound 27]	-0.9234	-0.9234	–	–
COCc1cccc(-c2ccc3c(c2)N(CC2CC2)C(=O)COC3)c1 [Compound 63]	-1.629	-1.629	–	–
COc1ccc(-c2ccc3c(c2)N(Cc2cc(F)cc(F)c2)C(=O)COC3)cn1 [Compound 156]	-1.039	-1.039	–	–
O=C1COCc2cc(-c3cccc(CO)c3)ccc2N1Cc1ccc2c(c1)OCO2 [Compound 168]	1.914	1.914	–	–
COc1ccccc1-c1ccc2c(c1)N(Cc1ccccc1Cl)C(=O)COC2 [Compound 151]	-1.249	-1.249	–	–
O=C1COCc2cc(-c3cccc(O)c3)ccc2N1Cc1ccccc1 [Compound 78]	-0.318	-0.318	–	–
COc1cccc(CN2C(=O)COCc3cc(-c4ccc(F)cc4OC)ccc32)c1 [Compound 177]	-1.282	-1.282	–	–
O=C1COCc2ccc(-c3cnc4ccccc4c3)cc2N1CCN1CCOCC1 [Compound 173]	0.2312	0.2312	–	–
O=C1COCc2ccc(-c3cccnc3)cc2N1CC1CC1 [Compound 25]	-1.503	-1.503	–	–
COc1ccc(-c2ccc3c(c2)N(CC2CC2)C(=O)COC3)cc1 [Compound 43]	3.877	3.877	–	–
Cc1ccccc1CN1C(=O)COCc2ccc(Br)cc21 [Compound 81]	11.5466	10.4743	–	12.6188
COc1ccccc1-c1ccc2c(c1)COCC(=O)N2Cc1ccc(C)cc1 [Compound 120]	-1.664	-1.664	–	–
